Literature values, collected in article PMC2693004 (Bioorganic & medicinal chemistry letters, 2009).
Entries after “also recorded” stand apart in the source; their conditions may differ.

Target: T1, recombinant human MAO-A (Homo sapiens, UniProt P21397)
T1 sequence (P21397 1-527): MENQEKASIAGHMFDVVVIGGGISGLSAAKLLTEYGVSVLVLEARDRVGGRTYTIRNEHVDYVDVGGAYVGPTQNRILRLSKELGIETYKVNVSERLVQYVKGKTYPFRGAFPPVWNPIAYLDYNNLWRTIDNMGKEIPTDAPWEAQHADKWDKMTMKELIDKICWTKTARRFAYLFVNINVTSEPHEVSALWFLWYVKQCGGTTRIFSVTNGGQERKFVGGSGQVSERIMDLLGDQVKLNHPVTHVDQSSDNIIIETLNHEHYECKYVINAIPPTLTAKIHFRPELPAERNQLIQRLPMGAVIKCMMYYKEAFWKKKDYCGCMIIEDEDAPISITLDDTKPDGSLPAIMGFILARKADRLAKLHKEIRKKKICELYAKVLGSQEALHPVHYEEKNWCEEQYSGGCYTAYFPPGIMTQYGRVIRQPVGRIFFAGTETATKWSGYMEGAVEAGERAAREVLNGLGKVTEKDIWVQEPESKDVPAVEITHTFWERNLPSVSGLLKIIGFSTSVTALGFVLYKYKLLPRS

Structure (SMILES)	binding to MAO-A
C(=CCc1ccccc1)Cc1ccccc1 [1,4-diphenyl-2-butene]	do not to bind
Cn1c(=O)c2c(nc(/C=C/c3cccc(Cl)c3)n2C)n(C)c1=O [CSC, (E)-8-(3-chlorostyryl)caffeine]	does not bind; also recorded: do not to bind
